The source of these data is paper PMC12302229, “Synergy of triazolyl substituents at C1 and C3 of galactose for high-affinity and selective galectin-4C inhibition” (RSC Chemical Biology, 2025).

Read-outs that look alike come from different tables or passages of the source.

Test [1] deals with T1, galectin-3 (Homo sapiens, UniProt P17931).
T1 construct: made in house
As to the kind of experiment: competitive fluorescence polarization assay, galectin-3. The following applies: Kd and SEM from 3–6 single point measurements, > values estimated, no apparent binding at highest concentration, read-out: Dissociation constants, Galectin-3. The protocol:
(§1) Affinities of 1c–1z for galectin-1, -3, -4C, -4N, -7, -8C, -8N, -9C, and -9N were measured using an established fluorescence polarization assay[57] with reported probes and conditions.[19] […]
(§2) Fluorescence polarization experiments
(§3) Human galectin-11 and galectin-32 were expressed and purified as earlier described. Fluorescence polarization experiments were performed on a PheraStarFS plate reader with software PHERAstar Mars version 2.10 R3 (BMG, Offenburg, Germany). Specific experimental conditions were a galectin-1 concentration of 0.5 µM together with the fluorescent probe (3,3’-dideoxy-3-[4-(fluorescein-5-yl-carbonylaminomethyl)-1H-1,2,3-triazol-1-yl]-3’-(3,5-di-methoxybenzamido)-1,1’-sulfanediyl-di-β-D-galactopyranoside 1 concentration of 20 nM and a galectin-3 concentration of 0.2 µM together with the fluorescent probe (3,3’-dideoxy-3-[4-(fluorescein-5-yl-carbonylaminomethyl)-1H-1,2,3- […]
(§4) triazol-1-yl]-3’-(3,5-di-methoxybenzamido)-1,1’-sulfanediyl-di-β-D-galactopyranoside) concentration of 20 nM, respectively. Inhibitors were dissolved in dimethylsulfoxide (analytical grade) to a concentration of 20 mM, diluted with PBS to 3–6 different concentrations, and tested in duplicate twice for galectin affinity using a competitive fluorescence polarization assay as earlier described.3 The highest inhibitor concentrations tested were 1 mM due to solubility limitations at higher concentration. Dissociation constants average and SEM were calculated from two to eight single point measurements showing between 20–80% inhibition. […]

Test [2] addresses T2, galectin-4C (Homo sapiens, UniProt P56470).
T2 construct: made in house; host or cells: E. coli BL-21 (DE3)
T2 sequence (P56470 185-323): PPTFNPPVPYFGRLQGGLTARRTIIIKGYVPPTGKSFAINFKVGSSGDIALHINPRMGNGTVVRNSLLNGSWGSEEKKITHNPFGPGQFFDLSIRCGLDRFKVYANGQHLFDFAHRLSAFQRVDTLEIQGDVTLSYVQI
As to the kind of experiment: competitive fluorescence polarization assay, galectin-4C. Type of test: binding. The following applies: for Kd: fluorescence polarization, x/y cells = only two data points revealed inhibition, both shown, > values estimated, no apparent binding at highest concentration, read-out: Dissociation constants, Galectin-4C. The protocol:
Affinities of 1c–1z for galectin-1, -3, -4C, -4N, -7, -8C, -8N, -9C, and -9N were measured using an established fluorescence polarization assay[57] with reported probes and conditions.[19]
Recombinant human galectin-4 C-terminal carbohydrate recognition domain was expressed and purified as previously reported.[57,70] Briefly, BL-21 (DE3) E. coli cells containing galectin-4C (amino acid sequence 185–323) was expressed, lysed by sonication and purified by affinity chromatography on a lactosyl-Sepharose column. Galectin-4C protein was eluted using 50 mM β-lactose in PBS, pH 7.4. Galectin-4C was then further gel purified using a Superdex 200/60 column (GE Healthcare) previously equilibrated in PBS, pH 7.4. The peak fractions collected containing galectin-4C were pooled and concentrated to 6.5 mg mL^−1 using an AmiconUltra 3K molecular weight cut-off centrifugal concentrator (Millipore, Billerica, MA, USA) and used directly in crystallisation studies. […]
as §4

For another test, the target named is T3, galectin-4N (Homo sapiens, UniProt P56470).
T3 construct: called “N” for the N-terminal CRD and “C” for the C-terminal
T3 sequence (P56470 19-150 limits assumed): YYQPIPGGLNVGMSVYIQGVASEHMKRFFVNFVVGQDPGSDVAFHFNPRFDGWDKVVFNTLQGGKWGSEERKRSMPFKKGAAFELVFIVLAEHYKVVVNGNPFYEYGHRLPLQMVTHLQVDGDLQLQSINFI
As to the kind of experiment: competitive fluorescence polarization assay, galectin-4N. Type of test: binding. The conditions noted are these: Kd and SEM from 3–6 single point measurements, read-out: Dissociation constants, Galectin-4N. The protocol:
as §1, §4
For orientation: Fluorescence polarisation rises when a labelled molecule tumbles more slowly, as on binding a larger partner.

The target of test [3] is T4, galectin-1 (Homo sapiens, UniProt P09382).
T4 construct: made in house
As to the kind of experiment: competitive fluorescence polarization assay, galectin-1. The following applies: fluorescence polarization; Kd and SEM from 3–6 single point measurements; read-out: Dissociation constants, Galectin-1. Type of test: binding. The protocol:
as §1, §2, §3, §4

In test [4] the target is T2, galectin-4C. The following applies: Table 1 reference saccharides; read-out: Dissociation constants, Galectin-4C; cited from earlier work.
Test [5] concerns the target T4, galectin-1. The conditions noted are these: Table 1 reference saccharides; read-out: Dissociation constants, Galectin-1; cited from earlier work.
The target of test [6] is T1, galectin-3. The following applies: Table 1 reference saccharides; read-out: Dissociation constants, Galectin-3; cited from earlier work.

T1 sequence (P17931 whole entry): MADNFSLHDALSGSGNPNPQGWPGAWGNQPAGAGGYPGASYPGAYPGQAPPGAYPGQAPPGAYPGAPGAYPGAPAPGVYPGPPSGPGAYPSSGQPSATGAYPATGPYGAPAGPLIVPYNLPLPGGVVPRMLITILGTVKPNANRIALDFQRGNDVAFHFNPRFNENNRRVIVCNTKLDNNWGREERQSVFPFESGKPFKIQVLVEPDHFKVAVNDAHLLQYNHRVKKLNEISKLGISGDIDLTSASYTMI
T4 sequence (P09382 whole entry): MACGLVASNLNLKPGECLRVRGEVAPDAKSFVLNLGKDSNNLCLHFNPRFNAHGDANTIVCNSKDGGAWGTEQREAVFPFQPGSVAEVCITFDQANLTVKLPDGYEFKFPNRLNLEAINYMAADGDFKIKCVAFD

With `OC[C@H]1O[C@@H](c2cn(-c3ccccc3F)nn2)[C@H](O)[C@@H](n2cc(-c3ccccc3)nn2)[C@H]1O` [Compound 16a, 1,3-Dideoxy-1-(1-(2-fluorophenyl)-1H-1,2,3-triazol-4-yl)-3-(4-(phenyl)-1H-1,2,3-triazolyl)-β-D-galactopyranosyl], the Kd was 34 ± 1 µM at galectin-3 [1], 18 ± 2 µM on galectin-4C [2], 90 ± 17 µM on galectin-4N and 280 ± 39 µM on galectin-1 [3].

As for `OC[C@H]1O[C@@H](c2cn(-c3ccccn3)nn2)[C@H](O)[C@@H](n2cc(-c3ccccc3)nn2)[C@H]1O` [Compound 16b, 1,3-Dideoxy-1-(1-(2-pyridyl)-1H-1,2,3-triazol-4-yl)-3-(4-(phenyl)-1H-1,2,3-triazolyl)-β-D-galactopyranosyl], the Kd at galectin-3 [1] was 34 ± 3 µM; on galectin-4C [2], 9.6 ± 2.3 µM; at galectin-4N, 240 ± 54 µM; on galectin-1 [3] it was 180 ± 1 µM. Further, the “fold better galectin-4C affinity compared to 1a–b” value at galectin-4C [2] (effect of adding the C3 phenyltriazolyl) is at most 79 fold.

As for `OC[C@H]1O[C@@H](Cn2cc(-c3ccc(F)cc3)nn2)[C@H](O)[C@@H](n2cc(-c3ccccc3)nn2)[C@H]1O` [Compound 24a], the Kd on galectin-3 [1] was 200 ± 32 µM; on galectin-4C [2], 9.5 ± 1.3 µM; on galectin-4N, 130 ± 20 µM; on galectin-1 [3], 220 ± 10 µM. For the same compound, the “fold stronger affinity for galectin-4C compared to galectin-1 and galectin-3” value on galectin-4C [2] (ratio of Kd) is listed as 20 fold. For the same compound, the “galectin-4C selectivity over other galectins” value at galectin-4C [2] (ratio of Kd) was “twenty-onefold and up to thirty-sevenfold”.

Consider `OC[C@H]1O[C@@H](Cn2cc(-c3ccc(C(F)(F)F)cc3)nn2)[C@H](O)[C@@H](n2cc(-c3ccccc3)nn2)[C@H]1O` [Compound 24b, 1-((4-(1-Phenyl-1H-1,2,3-triazol-4-yl)-1,3-dideoxy-β-D-galactopyranosyl)methyl)-4-(4-(trifluoromethyl)phenyl)-1H-1,2,3-triazole], for which the Kd on galectin-3 [1] is 720 ± 78 µM; on galectin-4C [2], 12 ± 1.7 µM; at galectin-4N it was 760 ± 32 µM; at galectin-1 [3], 440 ± 68 µM. Also, at galectin-4C [2] (ratio of Kd), the “galectin-4C selectivity over other galectins” value was “twenty-onefold and up to thirty-sevenfold”.

For the compound `OC[C@H]1O[C@@H](Cn2cc(-c3ccccc3)nn2)[C@H](O)[C@@H](n2cc(-c3ccccc3)nn2)[C@H]1O` [Compound 24c, 1-((4-(1-Phenyl-1H-1,2,3-triazol-4-yl)-1,3-dideoxy-β-D-galactopyranosyl)methyl)-4-phenyl-1H-1,2,3-triazole], the Kd at galectin-3 [1] is 90 ± 13 µM; at galectin-4C [2], 19 ± 2.9 µM; at galectin-4N, 290 ± 32 µM; at galectin-1 [3], 140 ± 5 µM.

Consider `OC[C@H]1O[C@@H](Cn2cc(-c3cc(F)c(F)c(F)c3)nn2)[C@H](O)[C@@H](n2cc(-c3ccccc3)nn2)[C@H]1O` [Compound 24d], for which the Kd was 91 ± 2 µM at galectin-3 [1], 22 ± 2.8 µM on galectin-4C [2], 130 ± 23 µM on galectin-4N and 240 ± 5 µM on galectin-1 [3].

Consider `CO[C@@H]1O[C@H](CO)[C@@H](O[C@@H]2O[C@H](CO)[C@H](O)[C@H](O)[C@H]2O)[C@H](O)[C@H]1O` [β-Me Lac, methyl β-lactoside], for which the Kd is 2900 µM at galectin-4C [4], 190 µM at galectin-1 [5] and 220 µM on galectin-3 [6].
